Reference: ChEMBL document CHEMBL5120836, “Discovery of novel 7,8-dihydropteridine-6(5H)-one-based DNA-PK inhibitors as potential anticancer agents via scaffold hopping strategy” (Eur J Med Chem, 2022)
Values after ≈ are worked out from the molar mass of the structure shown. Active and inactive are the calls of the source. The calls are words filed in the database; no cut-off is given here.

Legend:
[1] = molecular target: DNA-dependent protein kinase catalytic subunit (Homo sapiens, UniProt P78527); test: Inhibition of human native full length DNA-PK by ADP-Glo assay
Chain of DNA-dependent protein kinase catalytic subunit (P78527 whole entry): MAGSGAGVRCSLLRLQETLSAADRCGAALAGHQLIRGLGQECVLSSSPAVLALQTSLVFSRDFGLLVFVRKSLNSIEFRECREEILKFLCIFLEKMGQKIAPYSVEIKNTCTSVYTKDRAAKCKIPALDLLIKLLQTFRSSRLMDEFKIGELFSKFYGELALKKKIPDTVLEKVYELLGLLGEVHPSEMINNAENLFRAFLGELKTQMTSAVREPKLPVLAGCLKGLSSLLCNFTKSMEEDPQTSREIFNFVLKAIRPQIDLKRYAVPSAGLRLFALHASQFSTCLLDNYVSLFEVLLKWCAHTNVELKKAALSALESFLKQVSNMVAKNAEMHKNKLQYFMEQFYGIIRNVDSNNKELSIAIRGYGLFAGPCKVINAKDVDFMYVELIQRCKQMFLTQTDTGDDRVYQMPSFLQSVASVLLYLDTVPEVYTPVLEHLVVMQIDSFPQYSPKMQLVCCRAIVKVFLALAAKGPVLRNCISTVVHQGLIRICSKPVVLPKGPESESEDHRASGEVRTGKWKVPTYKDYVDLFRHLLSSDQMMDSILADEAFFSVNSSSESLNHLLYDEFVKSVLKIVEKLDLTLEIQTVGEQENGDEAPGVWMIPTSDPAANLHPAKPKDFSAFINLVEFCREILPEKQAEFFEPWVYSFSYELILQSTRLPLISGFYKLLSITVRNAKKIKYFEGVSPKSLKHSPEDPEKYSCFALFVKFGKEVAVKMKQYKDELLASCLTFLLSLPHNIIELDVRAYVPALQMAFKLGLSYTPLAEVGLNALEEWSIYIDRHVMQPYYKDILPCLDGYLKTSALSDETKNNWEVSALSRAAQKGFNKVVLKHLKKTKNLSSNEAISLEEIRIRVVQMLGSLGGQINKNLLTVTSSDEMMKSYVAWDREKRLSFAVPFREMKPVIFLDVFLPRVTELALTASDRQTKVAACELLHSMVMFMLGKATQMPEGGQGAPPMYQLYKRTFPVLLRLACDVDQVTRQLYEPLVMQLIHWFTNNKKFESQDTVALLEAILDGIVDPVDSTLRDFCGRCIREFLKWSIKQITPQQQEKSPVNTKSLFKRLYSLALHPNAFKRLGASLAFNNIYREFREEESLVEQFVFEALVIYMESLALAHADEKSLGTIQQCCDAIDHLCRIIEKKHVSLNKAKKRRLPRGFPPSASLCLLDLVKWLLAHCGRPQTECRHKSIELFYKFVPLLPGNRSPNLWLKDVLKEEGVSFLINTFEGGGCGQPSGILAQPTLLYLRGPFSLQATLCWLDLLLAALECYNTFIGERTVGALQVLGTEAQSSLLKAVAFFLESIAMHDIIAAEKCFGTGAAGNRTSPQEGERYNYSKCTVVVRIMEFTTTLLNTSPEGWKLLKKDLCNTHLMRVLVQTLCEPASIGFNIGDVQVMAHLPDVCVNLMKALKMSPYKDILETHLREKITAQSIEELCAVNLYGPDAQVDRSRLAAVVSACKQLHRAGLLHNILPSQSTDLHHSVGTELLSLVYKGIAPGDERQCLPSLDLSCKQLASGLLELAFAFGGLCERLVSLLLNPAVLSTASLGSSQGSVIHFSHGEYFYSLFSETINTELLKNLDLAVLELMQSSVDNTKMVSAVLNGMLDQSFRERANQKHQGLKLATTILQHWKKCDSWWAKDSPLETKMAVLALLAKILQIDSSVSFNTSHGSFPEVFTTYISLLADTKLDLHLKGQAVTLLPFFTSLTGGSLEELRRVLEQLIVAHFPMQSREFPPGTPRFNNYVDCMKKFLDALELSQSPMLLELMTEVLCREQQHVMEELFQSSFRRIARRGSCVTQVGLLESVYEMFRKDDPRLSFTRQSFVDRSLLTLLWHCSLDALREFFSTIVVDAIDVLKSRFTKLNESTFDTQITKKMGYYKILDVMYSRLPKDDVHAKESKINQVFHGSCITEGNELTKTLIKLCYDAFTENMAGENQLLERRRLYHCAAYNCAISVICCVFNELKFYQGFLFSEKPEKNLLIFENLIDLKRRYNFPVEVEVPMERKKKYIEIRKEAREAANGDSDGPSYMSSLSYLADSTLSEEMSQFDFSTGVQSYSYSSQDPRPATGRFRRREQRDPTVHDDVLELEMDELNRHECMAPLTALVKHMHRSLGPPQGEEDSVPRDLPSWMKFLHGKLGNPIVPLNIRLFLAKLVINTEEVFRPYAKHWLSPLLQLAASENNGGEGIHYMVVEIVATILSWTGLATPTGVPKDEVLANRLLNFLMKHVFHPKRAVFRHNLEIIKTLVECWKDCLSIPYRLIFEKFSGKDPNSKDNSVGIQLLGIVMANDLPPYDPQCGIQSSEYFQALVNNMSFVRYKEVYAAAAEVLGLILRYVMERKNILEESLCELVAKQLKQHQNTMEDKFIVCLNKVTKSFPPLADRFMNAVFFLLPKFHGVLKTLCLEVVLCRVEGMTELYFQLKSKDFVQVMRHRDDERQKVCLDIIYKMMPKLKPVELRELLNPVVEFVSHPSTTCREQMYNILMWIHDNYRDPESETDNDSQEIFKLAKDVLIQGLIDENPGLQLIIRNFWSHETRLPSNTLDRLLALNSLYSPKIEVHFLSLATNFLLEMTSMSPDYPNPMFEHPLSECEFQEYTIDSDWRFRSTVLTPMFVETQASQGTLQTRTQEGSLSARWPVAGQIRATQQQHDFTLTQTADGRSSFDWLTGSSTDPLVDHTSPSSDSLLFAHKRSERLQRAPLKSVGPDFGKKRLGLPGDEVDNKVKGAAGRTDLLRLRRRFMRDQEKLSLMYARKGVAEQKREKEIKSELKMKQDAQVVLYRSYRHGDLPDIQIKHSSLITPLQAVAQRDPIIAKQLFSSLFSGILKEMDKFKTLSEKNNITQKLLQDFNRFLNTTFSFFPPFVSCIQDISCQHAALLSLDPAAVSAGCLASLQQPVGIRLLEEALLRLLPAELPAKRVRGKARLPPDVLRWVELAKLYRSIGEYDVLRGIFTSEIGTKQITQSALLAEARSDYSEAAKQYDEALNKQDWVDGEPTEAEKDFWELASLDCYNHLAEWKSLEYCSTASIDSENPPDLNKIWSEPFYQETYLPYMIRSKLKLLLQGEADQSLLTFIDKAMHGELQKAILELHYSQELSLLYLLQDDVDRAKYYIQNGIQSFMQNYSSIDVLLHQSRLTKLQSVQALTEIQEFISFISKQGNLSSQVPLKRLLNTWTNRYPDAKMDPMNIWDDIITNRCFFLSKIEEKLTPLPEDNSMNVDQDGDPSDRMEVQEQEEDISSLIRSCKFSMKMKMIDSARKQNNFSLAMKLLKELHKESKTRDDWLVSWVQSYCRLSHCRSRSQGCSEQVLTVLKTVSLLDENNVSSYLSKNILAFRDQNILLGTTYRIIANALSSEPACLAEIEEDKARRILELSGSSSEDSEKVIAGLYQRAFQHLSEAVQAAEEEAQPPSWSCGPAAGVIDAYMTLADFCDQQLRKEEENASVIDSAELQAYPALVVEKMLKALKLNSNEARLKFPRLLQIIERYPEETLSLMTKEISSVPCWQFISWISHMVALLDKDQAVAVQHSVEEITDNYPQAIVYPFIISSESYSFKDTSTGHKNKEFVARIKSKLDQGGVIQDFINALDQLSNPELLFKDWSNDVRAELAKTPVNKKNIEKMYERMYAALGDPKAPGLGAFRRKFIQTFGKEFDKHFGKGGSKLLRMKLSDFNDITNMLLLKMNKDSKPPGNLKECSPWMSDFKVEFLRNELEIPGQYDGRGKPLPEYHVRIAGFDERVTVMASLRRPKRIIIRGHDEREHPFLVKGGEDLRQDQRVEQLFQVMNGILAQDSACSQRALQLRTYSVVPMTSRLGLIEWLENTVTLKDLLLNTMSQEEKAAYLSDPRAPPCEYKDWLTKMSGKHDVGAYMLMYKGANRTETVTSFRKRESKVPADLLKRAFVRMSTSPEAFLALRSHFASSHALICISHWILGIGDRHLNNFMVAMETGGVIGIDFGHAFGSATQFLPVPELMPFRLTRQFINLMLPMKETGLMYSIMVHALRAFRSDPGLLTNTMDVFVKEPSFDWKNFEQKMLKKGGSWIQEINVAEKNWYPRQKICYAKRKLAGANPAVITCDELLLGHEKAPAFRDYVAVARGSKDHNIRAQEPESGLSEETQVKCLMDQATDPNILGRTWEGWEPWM

[2] = Tmax in Sprague-Dawley rat at 5 mg/kg, po; format: ADME, organism-based; settings: in vivo
[3] = test system: HCT-116; test: Induction of apoptosis in human HCT-116 cells assessed as late apoptotic cells at 1 uM incubated for 24 hrs by AnnexinV-FITC/PI staining based flow cytometry (reference value: 3.07%); format: functional
[4] = test system: HCT-116; test: Induction of cell cycle arrest in human HCT-116 cells assessed as increase in accumulation of cells at G2/M phase at 1 uM incubated for 24 hrs in presence of 100 nM doxorubicin by PI staining based flow cytometry; format: functional
[5] = MRT (0 to infinity) in Sprague-Dawley rat at 5 mg/kg, po; format: ADME, organism-based; settings: in vivo
[6] = test system: HL-60; test: Synergistic antitumor activity against human HL-60 cells xenografted in BALB/c nude mouse assessed as tumor weight at 100 mg/kg, po qd for 16 days co-administered with doxorubicin (reference value: 27.9%); format: functional; settings: HL-60, 384 h, time 16 day
[7] = test system: HCT-116; test: Induction of apoptosis in human HCT-116 cells assessed as early apoptotic cells at 1 uM incubated for 24 hrs by AnnexinV-FITC/PI staining based flow cytometry (reference value: 3.04%); format: functional
[8] = test system: HCT-116; test: Disruption of mitochondrial function in human HCT-116 cells assessed as decrease in mitochondrial membrane potential by measuring proportion of cells with green fluorescence at 1 uM incubated for 24 hrs by JC-1 staining based flow cytometry (reference value: 0.566%); format: functional; design: scale not given: the % may be the effect or the level left
[9] = Kinetic solubility of the compound in phosphate-buffered solution at pH 6.4 incubated for 24 hrs by HPLC-MS/MS analysis; format: physicochemical; settings: phosphate buffer, read-out: Kinetic_solubility
[10] = test system: HCT-116; test: Antiproliferative activity against human HCT-116 cells assessed as inhibition of cell growth incubated for 48 hrs in presence of 100 nM doxorubicin by MTT assay; format: functional, cell-based; settings: HCT-116, 48 h
[11] = test system: HCT-116; test: Induction of apoptosis in human HCT-116 cells assessed as late apoptotic cells at 1 uM incubated for 24 hrs in presence of 100 nM doxorubicin by AnnexinV-FITC/PI staining based flow cytometry (reference value: 3.07%); format: functional
[12] = test system: HCT-116; test: Induction of apoptosis in human HCT-116 cells assessed as early apoptotic cells at 1 uM incubated for 24 hrs in presence of 100 nM doxorubicin by AnnexinV-FITC/PI staining based flow cytometry (reference value: 3.04%); format: functional
[13] = test system: HCT-116; test: Induction of apoptosis in human HCT-116 cells assessed as necrotic cells at 1 uM incubated for 24 hrs by AnnexinV-FITC/PI staining based flow cytometry (reference value: 0.031%); format: functional
[14] = test system: HCT-116; test: Disruption of mitochondrial function in human HCT-116 cells assessed as decrease in mitochondrial membrane potential by measuring proportion of cells with red fluorescence at 1 uM incubated for 24 hrs by JC-1 staining based flow cytometry (reference value: 99.4%); format: functional; design: scale not given: the % may be the effect or the level left
[15] = Plasma protein binding in human assessed as free fraction; format: ADME, cell-free
[16] = Toxicity in BALB/c nude mouse xenografted with human HL-60 cells assessed as effect on body weight at 100 mg/kg, po qd for 16 days; format: organism-based; settings: in vivo, 384 h, time 16 day
[17] = Toxicity in BALB/c nude mouse xenografted with human HL-60 cells assessed as effect on body weight at 100 mg/kg, po qd for 16 days co-administered with doxorubicin; format: organism-based; settings: in vivo, 384 h, time 16 day
[18] = Kinetic solubility of the compound in phosphate-buffered solution at pH 7.4 incubated for 24 hrs by HPLC-MS/MS analysis; format: physicochemical; settings: phosphate buffer, read-out: Kinetic_solubility
[19] = Cmax in Sprague-Dawley rat at 5 mg/kg, po; format: ADME, organism-based; design: dose 5 mg/kg, route po; settings: in vivo
[20] = test system: HCT-116; test: Antiproliferative activity against human HCT-116 cells assessed as inhibition of cell growth incubated for 48 hrs by MTT assay; format: functional, cell-based; settings: HCT-116, 48 h
[21] = test system: HL-60; test: Synergistic antitumor activity against human HL-60 cells xenografted in BALB/c nude mouse assessed as tumor volume at 100 mg/kg, po qd for 16 days co-administered with doxorubicin (reference value: 32.2%); format: functional; settings: HL-60, 384 h, time 16 day
[22] = AUC (0 to infinity) in Sprague-Dawley rat at 5 mg/kg, po; format: ADME, organism-based; design: time infinity, dose 5 mg/kg, route po; settings: in vivo
[23] = Plasma protein binding in rat assessed as free fraction; format: ADME, cell-free
[24] = test system: HCT-116; test: Induction of cell cycle arrest in human HCT-116 cells assessed as increase in accumulation of cells at […] at 1 uM incubated for 24 hrs in presence of 100 nM doxorubicin by PI staining based flow cytometry; format: functional
[25] = Lipophilicity, logP of the compound; format: physicochemical; settings: octanol/water
[26] = test system: HCT-116; test: Induction of apoptosis in human HCT-116 cells assessed as viable cells at 1 uM incubated for 24 hrs in presence of 100 nM doxorubicin by AnnexinV-FITC/PI staining based flow cytometry (reference value: 93.9%); format: functional; settings: read-out: Activity
[27] = test system: HCT-116; test: Induction of apoptosis in human HCT-116 cells assessed as necrotic cells at 1 uM incubated for 24 hrs in presence of 100 nM doxorubicin by AnnexinV-FITC/PI staining based flow cytometry (reference value: 0.031%); format: functional
[28] = test system: HCT-116; test: Induction of apoptosis in human HCT-116 cells assessed as viable cells at 1 uM incubated for 24 hrs by AnnexinV-FITC/PI staining based flow cytometry (reference value: 93.9%); format: functional; settings: read-out: Activity
[29] = test system: HCT-116; test: Synergistic antiproliferative activity against human HCT-116 cells assessed as combination index at 1 uM in presence of 100 nM doxorubicin by MTT assay; format: functional

Work on CCN1C(=O)C2(CCOCC2)c2nc(Nc3cn4ncnc4cc3C)ncc21 yielded an IC50 [1] of 135 nM.

Compound CCN1C(=O)CN(C2CCOCC2)c2nc(Nc3cn4ncnc4cc3C)ncc21 has an IC50 [1] of 3.37 nM.

In the case of Cc1cc2ncnn2cc1Nc1ncc2c(n1)N(C1CCOCC1)CC(=O)N2C1CC1, the IC50 [1] is reported as 6.76 nM.

For Cc1cc2ncnn2cc1Nc1ncc2c(n1)C(C)(C)C(=O)N2C, the IC50 [1] was 47.9 nM.

With Cc1cc2ncnn2cc1Nc1ncc2c(n1)N(C1CCOCC1)CC(=O)N2 the IC50 [1] was 7.06 nM.

Cc1cc2ncnn2cc1Nc1ncc2c(n1)N(C1CCOCC1)CC(=O)N2C(C)C showed an IC50 [1] of 25.5 nM.

Compound Cc1cc2ncnn2cc1Nc1ncc2c(n1)C1(CCC(OCC(F)F)CC1)C(=O)N2C (stereo unspecified) has an IC50 [1] of 16.9 nM.

In the case of [2H]C([2H])([2H])N1C(=O)C2(CCOCC2)c2nc(Nc3cn4ncnc4cc3C)ncc21, the IC50 [1] is reported as 126 nM.

Compound Cc1cc2ncnn2cc1Nc1ncc2c(n1)n(C1CCOCC1)c(=O)n2C [AZD-7648] has a Tmax [2] of 0.83 h, an Activity [3] of 4.53% and an Activity [4] of 64.46%. It also gave an MRT inf [5] of 2.51 h, an inhibition in vivo at 100 mg/kg [6] of 55.3% and an Activity [7] of 2.76%. For the same compound, the Activity [8] was 7.64%, the solubility kinetic at 24 h [9] was 101 µg/mL (≈ 266 µM) and the IC50 [10] was 19500 nM. The Activity [11] was 7.33%, the Activity [12] was 10.3% and the Activity [13] was 0.05%. For the same compound, the Activity [14] was 92.2%, the fraction unbound [15] was 0.834 and the Activity [16] was “Non-Toxic”. The Activity [17] was “Non-Toxic”, the solubility kinetic at 24 h [18] was 120 µg/mL (≈ 316 µM) and the Cmax [19] was 1500 ng/mL. It also gave an IC50 [20] of 35300 nM, an inhibition in vivo at 100 mg/kg [21] of 68.1% and an AUC(0-inf) [22] of 5240 ng·h/mL. For the same compound, the fraction unbound [23] was 0.653, the Activity [24] was “Active” and the logP [25] was 1.2. For the same compound, the viability at 1 µM [26] was 82.3%, the Activity [27] was 0.102% and the viability at 1 µM [28] was 92.7%. The CI [29] was 0.79.

Cc1cc2nccnc2cc1Nc1ncc2c(n1)N(C1CCOCC1)CC(=O)N2C gave an IC50 [1] of 3.26 nM.

Cc1cc2ncccc2cc1Nc1ncc2c(n1)N(C1CCOCC1)CC(=O)N2C showed an IC50 [1] of 6.9 nM.

Work on Cc1cc2ncccc2cc1Nc1ncc2c(n1)C1(CCOCC1)C(=O)N2C yielded an IC50 [1] of 10.5 nM.

Compound Cc1cc2ncnn2cc1Nc1ncc2c(n1)C1(CCC1)C(=O)N2C has an IC50 [1] of 21.4 nM.

In the case of Cc1cc2ncnn2cc1Nc1ncc2c(n1)C1(CCOCC1)C(=O)N2C(C)C, the IC50 [1] is reported as 220 nM.
